Data on 15 compounds can be found in patent US20250320193A1, “OXOISOINDOLINYL SUBSTITUTED PIPERIDINEDIONE DERIVATIVE AND USE THEREOF” (GLUETACS THERAPEUTICS (SHANGHAI) CO., LTD., priority 2022, published 2025).

Type in all cases: cell-based
What all share (details): hPBMC, compound 500 nM, 24 hours, Western blot
(In general: A western blot detects proteins with antibodies after separation by electrophoresis.)

The target in one assay is IKZF1 (Homo sapiens (Human), UniProt Q13422+Q96SW2). The assay can be described thus: Western blot, substrate protein expression in hPBMC: IKZF1. The protocol: (§1) The effect of the compounds of the present disclosure on the expression of target proteins in cells was detected using conventional Western blot analysis.
Sequence of IKZF1 (Q13422 whole entry): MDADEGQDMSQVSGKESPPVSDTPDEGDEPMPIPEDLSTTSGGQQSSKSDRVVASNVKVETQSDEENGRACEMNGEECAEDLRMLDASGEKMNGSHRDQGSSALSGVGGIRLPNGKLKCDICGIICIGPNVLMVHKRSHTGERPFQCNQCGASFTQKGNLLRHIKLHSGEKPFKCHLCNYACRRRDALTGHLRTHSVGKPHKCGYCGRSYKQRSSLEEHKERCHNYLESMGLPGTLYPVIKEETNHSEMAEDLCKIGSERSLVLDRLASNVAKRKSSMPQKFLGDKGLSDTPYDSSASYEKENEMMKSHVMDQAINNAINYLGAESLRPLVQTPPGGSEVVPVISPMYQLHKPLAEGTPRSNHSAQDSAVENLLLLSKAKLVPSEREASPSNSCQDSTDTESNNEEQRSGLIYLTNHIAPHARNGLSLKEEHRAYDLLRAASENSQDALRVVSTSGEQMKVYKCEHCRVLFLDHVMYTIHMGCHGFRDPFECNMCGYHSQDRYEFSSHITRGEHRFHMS
Sequence of IKZF1 (Q96SW2 whole entry): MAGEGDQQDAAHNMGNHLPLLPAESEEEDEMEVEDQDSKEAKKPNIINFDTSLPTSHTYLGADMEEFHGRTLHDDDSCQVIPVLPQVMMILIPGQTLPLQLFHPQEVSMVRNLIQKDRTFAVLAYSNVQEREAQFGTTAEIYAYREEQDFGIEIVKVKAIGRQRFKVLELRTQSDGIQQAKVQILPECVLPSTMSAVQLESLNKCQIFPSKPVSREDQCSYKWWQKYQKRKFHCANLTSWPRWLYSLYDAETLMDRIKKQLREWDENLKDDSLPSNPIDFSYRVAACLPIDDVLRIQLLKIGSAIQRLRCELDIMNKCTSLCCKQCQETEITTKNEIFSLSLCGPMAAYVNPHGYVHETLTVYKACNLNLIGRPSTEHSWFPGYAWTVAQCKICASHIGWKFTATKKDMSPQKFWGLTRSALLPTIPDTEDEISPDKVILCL
Sequence of IKZF1 (Q16531 whole entry partner): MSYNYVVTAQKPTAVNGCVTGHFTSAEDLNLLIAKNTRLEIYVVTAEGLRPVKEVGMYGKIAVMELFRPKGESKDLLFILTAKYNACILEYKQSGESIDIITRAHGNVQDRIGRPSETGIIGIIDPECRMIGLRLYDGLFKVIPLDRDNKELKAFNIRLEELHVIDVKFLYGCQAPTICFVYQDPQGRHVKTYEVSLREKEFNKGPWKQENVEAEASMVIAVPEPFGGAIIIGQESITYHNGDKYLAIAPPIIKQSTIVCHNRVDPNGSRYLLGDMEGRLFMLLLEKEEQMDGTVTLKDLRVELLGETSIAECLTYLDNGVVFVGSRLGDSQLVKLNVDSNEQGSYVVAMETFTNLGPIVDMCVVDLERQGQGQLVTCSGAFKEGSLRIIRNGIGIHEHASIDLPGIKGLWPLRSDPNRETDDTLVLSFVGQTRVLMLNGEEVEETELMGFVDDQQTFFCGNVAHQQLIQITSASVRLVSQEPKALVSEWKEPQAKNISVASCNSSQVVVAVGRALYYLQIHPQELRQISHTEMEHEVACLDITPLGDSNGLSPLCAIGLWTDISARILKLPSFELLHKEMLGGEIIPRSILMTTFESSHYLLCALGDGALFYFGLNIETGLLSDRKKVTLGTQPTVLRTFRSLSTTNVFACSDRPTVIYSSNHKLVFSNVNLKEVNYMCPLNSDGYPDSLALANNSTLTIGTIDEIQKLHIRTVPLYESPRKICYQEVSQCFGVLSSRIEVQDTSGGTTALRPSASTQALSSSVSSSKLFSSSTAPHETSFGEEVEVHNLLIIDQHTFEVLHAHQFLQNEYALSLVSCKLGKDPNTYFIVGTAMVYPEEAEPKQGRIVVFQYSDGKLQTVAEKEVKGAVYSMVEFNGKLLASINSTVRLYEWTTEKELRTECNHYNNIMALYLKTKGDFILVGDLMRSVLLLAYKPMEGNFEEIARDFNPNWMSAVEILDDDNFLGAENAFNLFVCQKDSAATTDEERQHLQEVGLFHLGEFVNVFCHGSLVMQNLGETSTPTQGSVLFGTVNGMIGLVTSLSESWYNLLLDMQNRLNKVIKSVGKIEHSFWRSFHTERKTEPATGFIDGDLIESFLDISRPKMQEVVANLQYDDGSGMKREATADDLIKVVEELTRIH
(§2) Human peripheral blood mononuclear cells (hPBMCs) at a density of 1×10^6 cells/mL were thawed according to the PBMC Recovery Protocol (Milecell Biotechnologies Inc, Shanghai). […] After 24 hours of compounds treatment, cells were harvested and lysed in RIPA protein lysate containing phosphatase inhibitors on ice for 30-60 min, followed by centrifugation. The supernatant was aspirated as the extracted total cell protein. The protein concentration of the supernatant was determined using the conventional BCA (Bicinchoninic Acid) assay. The supernatant was then mixed with 4× SDS sample loading buffer, denatured at 95° C. for 5 minutes, and then subjected to SDS-PAGE electrophoresis on a polyacrylamide gel. Proteins were then transferred to a nitrocellulose (NC) membrane, blocked at room temperature for 1-2 h, and processed for antibody incubation and detection according to the manufacturer's instructions (Cell Signaling Technology).
(§3) Half-Maximal Degradation Concentration value (the drug concentration required for degrading proteins by 50%, abbreviated as DC50) reads method: comparing the grayscale values of Western blot bands from drug-treated samples (protein degrader compounds) with those from blank (DMSO-treated) controls, and identifying the drug concentration range at which the grayscale value is half that of the DMSO-treated control bands.
(§4) DC50 values can be calculated using ImageJ software to measure grayscale values of Western blot bands from drug-treated samples. The relationship curve between drug concentration and grayscale values is fitted to estimate the drug concentration corresponding to half the grayscale value.
(§5) Target protein remaining (%) refers to the percentage of target protein remaining in hPBMC cells after treatment with protein degrader compounds.
(§6) Calculation method for protein remaining (%): Use ImageJ software to measure grayscale values of Western blot bands from drug (protein degrader)-treated samples. The grayscale value of drug-treated bands is divided by that of internal control protein bands, and the resulting quotient is normalized to obtain the relative percentage of remaining target protein after protein degrader treatment.
(§7) Target protein degradation rate (%)=100%-target protein remaining (%).

In another assay the target is IKZF3 (Homo sapiens (Human), UniProt Q96SW2+Q9UKT9). The experiment in a line: Western blot, substrate protein expression in hPBMC: IKZF3. The protocol: as §1, §2, §3, §4, §5, §6, §7
Sequence of IKZF3 (Q9UKT9 whole entry): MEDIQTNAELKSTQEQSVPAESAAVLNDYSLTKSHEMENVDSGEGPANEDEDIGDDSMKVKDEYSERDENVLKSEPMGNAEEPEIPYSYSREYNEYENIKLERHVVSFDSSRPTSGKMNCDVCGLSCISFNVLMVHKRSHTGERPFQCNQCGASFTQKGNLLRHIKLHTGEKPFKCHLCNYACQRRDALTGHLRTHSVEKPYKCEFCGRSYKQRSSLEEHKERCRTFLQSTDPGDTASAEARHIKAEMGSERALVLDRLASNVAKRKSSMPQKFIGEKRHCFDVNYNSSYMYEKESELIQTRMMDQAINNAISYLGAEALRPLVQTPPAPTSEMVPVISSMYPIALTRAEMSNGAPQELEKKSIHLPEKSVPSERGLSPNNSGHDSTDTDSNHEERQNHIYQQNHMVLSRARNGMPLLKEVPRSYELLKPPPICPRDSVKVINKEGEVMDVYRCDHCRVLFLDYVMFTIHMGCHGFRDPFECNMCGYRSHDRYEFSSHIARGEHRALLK
Sequence of IKZF3 (Q96SW2 whole entry): as the sequence (Q96SW2 whole entry) above
Sequence of IKZF3 (Q16531 whole entry partner): as the sequence (Q16531 whole entry partner) above
In a further assay the target is GSPT1 (Homo sapiens (Human), UniProt P15170+Q96SW2). The experiment in a line: Western blot, substrate protein expression in hPBMC: GSPT1. The protocol: as §1, §2, §3, §4, §5, §6, §7
Sequence of GSPT1 (P15170 whole entry): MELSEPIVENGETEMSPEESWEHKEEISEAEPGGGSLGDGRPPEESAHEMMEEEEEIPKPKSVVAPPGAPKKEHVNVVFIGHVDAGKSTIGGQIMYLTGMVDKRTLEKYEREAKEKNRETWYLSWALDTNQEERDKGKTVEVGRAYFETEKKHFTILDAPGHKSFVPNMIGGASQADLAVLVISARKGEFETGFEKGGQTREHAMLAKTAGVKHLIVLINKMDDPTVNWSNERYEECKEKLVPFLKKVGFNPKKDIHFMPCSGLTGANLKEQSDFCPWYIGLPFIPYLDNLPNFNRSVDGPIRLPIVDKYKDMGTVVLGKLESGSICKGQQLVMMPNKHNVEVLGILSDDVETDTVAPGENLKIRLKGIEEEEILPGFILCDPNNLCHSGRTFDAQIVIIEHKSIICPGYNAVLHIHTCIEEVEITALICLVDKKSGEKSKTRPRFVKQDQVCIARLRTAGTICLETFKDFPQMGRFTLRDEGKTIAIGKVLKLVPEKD
Sequence of GSPT1 (Q96SW2 whole entry): as the sequence (Q96SW2 whole entry) above
Sequence of GSPT1 (Q16531 whole entry partner): as the sequence (Q16531 whole entry partner) above

Take `O=C1CCC(N2C(=O)c3ccc(C(=O)N4CCN(C(c5ccc(Cl)cc5)c5ccc(Cl)cc5)CC4)cc3C2=O)C(=O)N1` (stereo not drawn) [GT-05890, 5-(4-(bis(4-chlorophenyl)methyl)piperazine-1-carbonyl)-2-(2,6-dioxopiperidin-3-yl) isoindoline-1,3-dione]: the “substrate protein remaining % IKZF1” value at IKZF1 is reported as “B (B represents substrate protein remaining % > 50%)”. Further, the “substrate protein remaining % IKZF3” value on IKZF3 is recorded as “B (B represents substrate protein remaining % > 50%)”. Further, at GSPT1, the “substrate protein remaining % GSPT1” value is on record as “A (A represents 0% ≤ substrate protein remaining % ≤ 50%)”.

With `O=C1CCC(N2Cc3cc(C(=O)N4C5CC4CN(C(c4ccccc4)c4ccccc4)C5)ccc3C2=O)C(=O)N1` (stereo not drawn) [GT-05891, 3-(5-(3-benzhydryl-3,6-diazabicyclo[3.1.1]heptane-6-carbonyl)-1-oxoisoindolin-2-yl)piperidine-2,6-dione], at IKZF1, the “substrate protein remaining % IKZF1” value was “B (B represents substrate protein remaining % > 50%)”. In addition, on IKZF3, the “substrate protein remaining % IKZF3” value was “B (B represents substrate protein remaining % > 50%)”. The “substrate protein remaining % GSPT1” value at GSPT1 was “A (A represents 0% ≤ substrate protein remaining % ≤ 50%)”.

In the case of `O=C1CCC(N2Cc3cc(C(=O)N4CCCN(C(c5ccccc5)c5ccccc5)CC4)ccc3C2=O)C(=O)N1` (stereo not drawn) [GT-05892, 3-(5-(4-benzhydryl-1,4-diazepane-1-carbonyl)-1-oxoisoindolin-2-yl)piperidine-2,6-dione], the “substrate protein remaining % IKZF1” value at IKZF1 is given as “B (B represents substrate protein remaining % > 50%)”. Moreover, the “substrate protein remaining % IKZF3” value at IKZF3 is “B (B represents substrate protein remaining % > 50%)”. On GSPT1, the “substrate protein remaining % GSPT1” value was “A (A represents 0% ≤ substrate protein remaining % ≤ 50%)”.

For `O=C1CCC(N2C(=O)c3ccc(CN4CCN(C5c6ccccc6-c6ccccc65)CC4)cc3C2=O)C(=O)N1` (stereo not drawn) [GT-05908, 5-((4-(9H-fluoren-9-yl)piperazin-1-yl)methyl)-2-(2,6-dioxopiperidin-3-yl) isoindoline-1,3-dione], the “substrate protein remaining % IKZF1” value at IKZF1 is given as “A (A represents 0% ≤ substrate protein remaining % ≤ 50%)”. The “substrate protein remaining % IKZF3” value at IKZF3 is reported as “A (A represents 0% ≤ substrate protein remaining % ≤ 50%)”. The “substrate protein remaining % GSPT1” value on GSPT1 was “A (A represents 0% ≤ substrate protein remaining % ≤ 50%)”.

Take `O=C1CCC(N2C(=O)c3ccc(C(=O)N4CCC(N(c5ccccc5)c5ccccn5)CC4)cc3C2=O)C(=O)N1` (stereo not drawn) [GT-05925, 2-(2,6-dioxopiperidin-3-yl)-5-(4-(phenyl(pyridin-2-yl)amino)piperidine-1-carbonyl) isoindoline-1,3-dione]: at IKZF1, the “substrate protein remaining % IKZF1” value is “B (B represents substrate protein remaining % > 50%)”. Also, the “substrate protein remaining % IKZF3” value on IKZF3 is on record as “B (B represents substrate protein remaining % > 50%)”. Further, the “substrate protein remaining % GSPT1” value at GSPT1 is recorded as “A (A represents 0% ≤ substrate protein remaining % ≤ 50%)”.

Turning to `O=C1CCC(N2C(=O)c3ccc(C(=O)N4CCC(N(c5ccccc5)c5ccccc5)CC4)cc3C2=O)C(=O)N1` (stereo not drawn) [GT-05928, 2-(2,6-dioxopiperidin-3-yl)-5-(4-(diphenylamino)piperidine-1-carbonyl) isoindoline-1,3-dione], on IKZF1, the “substrate protein remaining % IKZF1” value is given as “B (B represents substrate protein remaining % > 50%)”. Besides, on IKZF3, the “substrate protein remaining % IKZF3” value is given as “B (B represents substrate protein remaining % > 50%)”. Also, the “substrate protein remaining % GSPT1” value at GSPT1 is listed as “A (A represents 0% ≤ substrate protein remaining % ≤ 50%)”.

With `O=C1CCC(N2C(=O)c3cc(F)c(N4C5CCC4CN(C(c4ccccc4)c4ccccc4)C5)cc3C2=O)C(=O)N1` (stereo not drawn) [GT-05932, 5-(3-benzhydryl-3,8-diazabicyclo[3.2.1]octan-8-yl)-2-(2,6-dioxopiperidin-3-yl)-6-fluoroisoindoline-1,3-dione], the “substrate protein remaining % IKZF1” value at IKZF1 is “B (B represents substrate protein remaining % > 50%)”. Besides, on IKZF3, the “substrate protein remaining % IKZF3” value is given as “B (B represents substrate protein remaining % > 50%)”. Besides, at GSPT1, the “substrate protein remaining % GSPT1” value was “A (A represents 0% ≤ substrate protein remaining % ≤ 50%)”.

Take `O=C1CCC(N2C(=O)c3cc(F)c(N4CC5CC(C4)N5C(c4ccccc4)c4ccccc4)cc3C2=O)C(=O)N1` (stereo not drawn) [GT-05934, 5-(6-benzhydryl-3,6-diazabicyclo[3.1.1]heptan-3-yl)-2-(2,6-dioxopiperidin-3-yl)-6-fluoroisoindoline-1,3-dione]: the “substrate protein remaining % IKZF1” value on IKZF1 is “B (B represents substrate protein remaining % > 50%)”. The “substrate protein remaining % IKZF3” value at IKZF3 is given as “A (A represents 0% ≤ substrate protein remaining % ≤ 50%)”. In addition, the “substrate protein remaining % GSPT1” value at GSPT1 is recorded as “A (A represents 0% ≤ substrate protein remaining % ≤ 50%)”.

As to `O=C1CCC(N2C(=O)c3ccc(N4C5CCC4CN(C(c4ccccc4)c4ccccc4)C5)cc3C2=O)C(=O)N1` (stereo not drawn) [GT-05937, 5-(3-benzhydryl-3,8-diazabicyclo[3.2.1]octan-8-yl)-2-(2,6-dioxopiperidin-3-yl) isoindoline-1,3-dione], the “substrate protein remaining % IKZF1” value on IKZF1 is “B (B represents substrate protein remaining % > 50%)”. At IKZF3, the “substrate protein remaining % IKZF3” value is “B (B represents substrate protein remaining % > 50%)”. The “substrate protein remaining % GSPT1” value on GSPT1 is given as “A (A represents 0% ≤ substrate protein remaining % ≤ 50%)”.

For the compound `O=C1CCC(N2C(=O)c3ccc(N4C5CC4CN(C(c4ccccc4)c4ccccc4)C5)cc3C2=O)C(=O)N1` (stereo not drawn) [GT-05938, 5-(3-benzhydryl-3,6-diazabicyclo[3.1.1]heptan-6-yl)-2-(2,6-dioxopiperidin-3-yl) isoindoline-1,3-dione], the “substrate protein remaining % IKZF1” value on IKZF1 is on record as “B (B represents substrate protein remaining % > 50%)”. The “substrate protein remaining % IKZF3” value at IKZF3 is listed as “B (B represents substrate protein remaining % > 50%)”. Moreover, the “substrate protein remaining % GSPT1” value on GSPT1 is “A (A represents 0% ≤ substrate protein remaining % ≤ 50%)”.

Turning to `O=C1CCC(N2C(=O)c3ccc(CN4C[C@H]5C[C@@H]4CN5C(c4ccccc4)c4ccccc4)cc3C2=O)C(=O)N1` (stereo partly drawn) [GT-05959, 5-(((1R,4R)-5-benzhydryl-2,5-diazabicyclo[2.2.1]heptan-2-yl)methyl)-2-(2,6-dioxopiperidin-3-yl) isoindoline-1,3-dione], on IKZF1, the “substrate protein remaining % IKZF1” value is on record as “B (B represents substrate protein remaining % > 50%)”. Moreover, the “substrate protein remaining % IKZF3” value at IKZF3 was “B (B represents substrate protein remaining % > 50%)”. In addition, the “substrate protein remaining % GSPT1” value on GSPT1 is listed as “A (A represents 0% ≤ substrate protein remaining % ≤ 50%)”.

For `CC1CN(Cc2ccc3c(c2)C(=O)N(C2CCC(=O)NC2=O)C3=O)CC(C)N1C(c1ccccc1)c1ccccc1` (stereo not drawn) [GT-05968, 5-((4-benzhydryl-3,5-dimethylpiperazin-1-yl)methyl)-2-(2,6-dioxopiperidin-3-yl) isoindoline-1,3-dione], at IKZF1, the “substrate protein remaining % IKZF1” value was “B (B represents substrate protein remaining % > 50%)”. Moreover, on IKZF3, the “substrate protein remaining % IKZF3” value is “B (B represents substrate protein remaining % > 50%)”. In addition, the “substrate protein remaining % GSPT1” value at GSPT1 was “A (A represents 0% ≤ substrate protein remaining % ≤ 50%)”.

With `O=C1CCC(N2C(=O)c3ccc(C(=O)N4CC5CCC(C4)N5C(c4ccccc4)c4ccccc4)cc3C2=O)C(=O)N1` (stereo not drawn) [GT-05982, 5-(8-benzhydryl-3,8-diazabicyclo[3.2.1]octane-3-carbonyl)-2-(2,6-dioxopiperidin-3-yl) isoindoline-1,3-dione], the “substrate protein remaining % IKZF1” value at IKZF1 is “B (B represents substrate protein remaining % > 50%)”. Further, the “substrate protein remaining % IKZF3” value on IKZF3 is on record as “B (B represents substrate protein remaining % > 50%)”. Moreover, at GSPT1, the “substrate protein remaining % GSPT1” value is listed as “A (A represents 0% ≤ substrate protein remaining % ≤ 50%)”.

As to `C[C@@H]1CN(C(c2ccccc2)c2ccccc2)CCN1Cc1ccc2c(c1)C(=O)N(C1CCC(=O)NC1=O)C2=O` (stereo partly drawn) [GT-06047, 5-(((R)-4-benzhydryl-2-methylpiperazin-1-yl)methyl)-2-(2,6-dioxopiperidin-3-yl) isoindoline-1,3-dione], the “substrate protein remaining % IKZF1” value on IKZF1 is listed as “B (B represents substrate protein remaining % > 50%)”. Moreover, the “substrate protein remaining % IKZF3” value at IKZF3 is “B (B represents substrate protein remaining % > 50%)”. Also, the “substrate protein remaining % GSPT1” value on GSPT1 is “A (A represents 0% ≤ substrate protein remaining % ≤ 50%)”.

With `O=C1CCC(N2C(=O)c3ccc(CN4CCN(C5c6cc(Cl)ccc6-c6ccc(Cl)cc65)CC4)cc3C2=O)C(=O)N1` (stereo not drawn) [GT-06049, 5-((4-(2,7-dichloro-9H-fluoren-9-yl)piperazin-1-yl)methyl)-2-(2,6-dioxopiperidin-3-yl) isoindoline-1,3-dione], at IKZF1, the “substrate protein remaining % IKZF1” value is recorded as “B (B represents substrate protein remaining % > 50%)”. On IKZF3, the “substrate protein remaining % IKZF3” value is “A (A represents 0% ≤ substrate protein remaining % ≤ 50%)”. Moreover, at GSPT1, the “substrate protein remaining % GSPT1” value is recorded as “A (A represents 0% ≤ substrate protein remaining % ≤ 50%)”.
